Assay results as given in ChEMBL document CHEMBL1158550, “The cytotoxic styryl lactone goniothalamin is an inhibitor of nucleocytoplasmic transport” (Bioorg Med Chem Lett, 2010).
Calls of active or inactive are those of the source. The rule behind the calls is not given here.

Experiments:
[1] = molecular target: Exportin-1 (Homo sapiens) (UniProt O14980); experiment: Inhibition of CRM1-mediated nuclear export of Rio2 in human HeLa cells at 2 uM; type: cell-based
[2] = molecular target: Exportin-1 (Homo sapiens) (UniProt O14980); experiment: Inhibition of CRM1-mediated nuclear export of Rio2 in human HeLa cells at 1 uM; type: cell-based
MDA-MB-231 [3] = experiment: Cytotoxicity against human MDA-MB-231 cells; type: functional, cell-based
MDA-MB-231 [4] = experiment: Induction of apoptosis in human MDA-MB-231 cells; type: functional, cell-based

Exportin-1 (Homo sapiens), sequence (O14980 whole entry): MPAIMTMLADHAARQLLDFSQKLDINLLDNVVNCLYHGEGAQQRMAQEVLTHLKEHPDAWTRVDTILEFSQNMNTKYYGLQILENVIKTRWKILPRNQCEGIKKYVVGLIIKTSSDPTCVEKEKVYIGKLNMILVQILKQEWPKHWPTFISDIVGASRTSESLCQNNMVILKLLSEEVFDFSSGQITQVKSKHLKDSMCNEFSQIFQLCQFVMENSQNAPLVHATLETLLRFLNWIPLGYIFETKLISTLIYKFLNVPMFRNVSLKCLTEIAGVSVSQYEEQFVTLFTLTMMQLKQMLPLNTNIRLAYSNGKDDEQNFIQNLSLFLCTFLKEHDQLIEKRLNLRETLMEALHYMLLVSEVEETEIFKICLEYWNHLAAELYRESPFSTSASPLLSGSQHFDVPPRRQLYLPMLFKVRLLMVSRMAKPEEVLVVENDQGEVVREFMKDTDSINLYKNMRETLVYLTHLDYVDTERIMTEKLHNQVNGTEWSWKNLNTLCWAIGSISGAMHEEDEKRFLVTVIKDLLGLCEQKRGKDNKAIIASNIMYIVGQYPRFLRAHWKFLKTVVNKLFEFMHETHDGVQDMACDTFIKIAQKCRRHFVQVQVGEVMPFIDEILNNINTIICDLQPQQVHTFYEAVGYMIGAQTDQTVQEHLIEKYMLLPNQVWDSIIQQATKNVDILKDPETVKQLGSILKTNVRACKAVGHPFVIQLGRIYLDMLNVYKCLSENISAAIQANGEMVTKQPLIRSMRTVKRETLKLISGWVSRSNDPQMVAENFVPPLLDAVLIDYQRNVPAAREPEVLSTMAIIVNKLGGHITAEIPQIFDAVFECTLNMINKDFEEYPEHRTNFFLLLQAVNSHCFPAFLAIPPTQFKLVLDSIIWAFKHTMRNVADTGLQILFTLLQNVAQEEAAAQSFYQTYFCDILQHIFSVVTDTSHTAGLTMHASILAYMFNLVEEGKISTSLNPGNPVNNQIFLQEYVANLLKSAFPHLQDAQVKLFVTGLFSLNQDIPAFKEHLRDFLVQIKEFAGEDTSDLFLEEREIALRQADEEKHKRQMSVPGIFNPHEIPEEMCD

SMILES | inhibition [1] | inhibition [2] | IC50 (MDA-MB-231 [3]) | Activity (MDA-MB-231 [4])
O=C1C=CC[C@H](/C=C/c2ccccc2)O1 [GONIOTHALAMIN] | – | Active | 1460 nM | Active
O=C1C=CC[C@H](C#C/C=C/c2ccccc2)O1 | inactive | – | – | –

More lines, main results first:

inhibition [1] | inhibition [2] | SMILES | IC50 (MDA-MB-231 [3]) | Activity (MDA-MB-231 [4])
inactive | – | O=C1C=CC[C@H](c2ccccc2)O1 | – | –
inactive | – | O=C1C=CC[C@H](c2ccc(-c3ccccc3)cc2)O1 | – | –
inactive | – | O=C1C=CC[C@H](Cc2ccccc2)O1 | – | –
